The target of the assay is protein kinase C. The experiment in a line: enzyme assay of protein kinase C activated with phosphatidylserine and diacylglycerol. The assay is classed as biochemical. The following applies: protein kinase C activated with phosphatidylserine and iacylglycerol; according to EP-OS 0 255 126; read-out: concentration giving 50% inhibition of protein kinase C. The protocol: Compounds of the present invention are potent inhibitors of protein kinases, such as protein kinase C. […] The experiment was carried out according to EP-OS 0 255 126 (inhibition of protein kinase C).

Our source for the IC50 values is patent US4912107A, “Pyrrolocarbazole derivatives, compositions containing them, and methods for using them” (Goedecke Aktiengesellschaft, priority 1988, dated 1990).

SMILES strings stand for the structures. pIC50: −log10 of the molar value.

In the case of `CCn1c2ccccc2c2c3c(c(-c4ccccc4Cl)cc21)C(=O)NC3=O` [Example 2a, 4-(2-Chlorophenyl)-6-ethyl-1,2,3,6-tetrahydro-1,3-dioxopyrrolo[3,4-c]carbazole], the pIC50 is 6.24.
